Data from patent publication US20050096347A1, “Beta3-Adrenoreceptor agonists, agonist compositions and methods of using” (Molecular Design International, Inc., priority 1997, published 2005).
Structures can show the parent of a compound that is named as a salt.

Columns and labels:
Human β1-AR = Human β1-AR (Homo sapiens, UniProt P08588); test: CRE-luciferase reporter gene (CRE-LUC) assay, CHO cells expressing human β1-AR
Experimental: (§1) cAMP response element (CRE)-luciferase(LUC) reporter gene (CRE-LUC) assay. […] The transfected CHO cells were seeded at a density of 40,000/well in 96 well microtiter plates (Culturplate, Packard) and allowed to grow for 20 hours. After 20 hours, the cells were treated with varying drug concentrations (10^−11 to 10^−4 M) for 4 hours. Following drug exposures, the cells were lysed and luciferase activity measured using the LucLite® assay kit (Packard). Changes in light production were measured by a Topcount® luminometer (Packard).

Human β2-AR = Human β2-AR (Homo sapiens, UniProt P07550); test: CRE-luciferase reporter gene (CRE-LUC) assay, CHO cells expressing human β2-AR
Human β2-AR, sequence (P07550 whole entry): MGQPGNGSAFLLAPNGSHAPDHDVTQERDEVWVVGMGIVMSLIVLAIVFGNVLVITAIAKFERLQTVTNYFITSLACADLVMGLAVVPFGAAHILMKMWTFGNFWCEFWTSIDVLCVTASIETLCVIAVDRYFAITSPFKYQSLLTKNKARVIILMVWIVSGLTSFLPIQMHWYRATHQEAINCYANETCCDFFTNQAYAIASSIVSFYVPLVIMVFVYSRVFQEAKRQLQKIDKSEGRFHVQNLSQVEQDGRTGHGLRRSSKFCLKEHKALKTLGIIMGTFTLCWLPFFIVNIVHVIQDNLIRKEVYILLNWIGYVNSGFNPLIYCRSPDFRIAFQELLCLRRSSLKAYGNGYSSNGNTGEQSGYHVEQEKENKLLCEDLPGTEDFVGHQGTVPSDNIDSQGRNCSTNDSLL
Experimental: as §1

Human β3-AR = Human β3-AR (Homo sapiens, UniProt P13945); test: CRE-luciferase reporter gene (CRE-LUC) assay, CHO cells expressing human β3-AR
Human β3-AR, sequence (P13945 whole entry): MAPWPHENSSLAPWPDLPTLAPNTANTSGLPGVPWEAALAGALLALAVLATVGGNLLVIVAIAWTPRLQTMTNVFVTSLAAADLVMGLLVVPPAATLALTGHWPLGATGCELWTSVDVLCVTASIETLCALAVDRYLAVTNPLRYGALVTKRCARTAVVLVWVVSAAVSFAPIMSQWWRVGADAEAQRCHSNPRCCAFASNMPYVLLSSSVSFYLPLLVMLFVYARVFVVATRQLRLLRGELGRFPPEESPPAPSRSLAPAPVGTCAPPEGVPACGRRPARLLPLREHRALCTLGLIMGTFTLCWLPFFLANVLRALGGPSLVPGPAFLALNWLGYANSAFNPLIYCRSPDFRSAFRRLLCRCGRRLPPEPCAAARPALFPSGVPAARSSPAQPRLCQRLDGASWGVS
Experimental: as §1

Human β1-AR, sequence (P08588 whole entry): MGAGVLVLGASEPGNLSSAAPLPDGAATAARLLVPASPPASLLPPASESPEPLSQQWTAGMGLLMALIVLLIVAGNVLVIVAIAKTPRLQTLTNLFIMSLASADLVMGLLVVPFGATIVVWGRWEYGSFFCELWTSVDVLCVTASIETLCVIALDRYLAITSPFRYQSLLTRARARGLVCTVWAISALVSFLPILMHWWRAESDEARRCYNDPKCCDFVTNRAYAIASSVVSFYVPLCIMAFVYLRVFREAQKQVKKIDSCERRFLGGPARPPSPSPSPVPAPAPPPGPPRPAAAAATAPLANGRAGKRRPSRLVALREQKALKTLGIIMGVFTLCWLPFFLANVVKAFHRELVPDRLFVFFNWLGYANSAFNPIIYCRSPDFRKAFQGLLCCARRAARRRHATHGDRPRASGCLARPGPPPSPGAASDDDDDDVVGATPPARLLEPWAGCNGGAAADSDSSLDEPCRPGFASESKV

EC50 (Human β1-AR) [nM]	EC50 (Human β2-AR) [nM]	EC50 (Human β3-AR) [nM]	melting point	SMILES
1950	229	35.5	–	COc1c(I)cc(CC2NCCc3cc(O)ccc32)cc1I (stereo not shown) [6-Monophenolic TMQ analog (A-4)]
–	–	–	196 to 200 °C (dec.)	COc1cc2c(cc1OC)C(Cc1cc(I)c(NC(C)=O)c(I)c1)NCC2 (stereo not shown) (as salt: hydrochloride) [6,7-Dimethoxy-acetamidoDITMQ, 1-(4-Acetamido-3,5-diiodobenzyl)-6,7-dimethoxy-1,2,3,4-tetrahydroisoquinoline Hydrochloride]
